We go through 1 compound from patent US20190227066A1, “COMPOSITIONS AND METHODS FOR DETECTING CANCER CELLS IN A TISSUE SAMPLE” (ISI Life Sciences, Inc., priority 2016, published 2019).

In this test the test system is SDOV3 cells (an ovarian cancer cell line). Kind of test: Detection of ovarian cancer cells: uptake and intracellular deacylation, imaged by fluorescence microscopy. Type of test: cell-based. To be noted: 50 micromolar, folate-free medium (no FBS), washed with HBSS, 20× immersion objective. On the procedure:
Compound 24 and comparative compound A were evaluated for their ability to be absorbed by cancer cells and then, in the case of compound 24, deacylated by intracellular esterases so as to regenerate a fluorescent structure. Specifically, approximately 500,000 SDOV3 cells (an ovarian cancer cell line) were seeded into separate 35 mm culture dishes containing a folate-free growth medium (RPMI+10% FBS). The next day, the medium was replaced with a folate-free medium (no FBS). In one culture dish, the medium was supplemented with 25 micromolar of compound 24; and, in another culture dish, the medium was supplemented with 50 micromolar of comparative compound A. After incubation, the cells were washed with HBSS (Hank's balanced salt solution) to remove unbound compound. The cells were then imaged with a 20× immersion objective on a standard upright fluorescent microscope. […] FIG. 1 illustrates a picture showing the fluorescence generated. Note that only the cancer cells evidenced fluorescence and that the solution remained non-fluorescent. […] This evidences that that composition was not suitable for use in the methods described herein.

Take `Nc1nc2ncc(CNc3ccc(C(=O)NC(CCC(=O)NCCCCCNC(=O)c4cccc(-c5c6ccc(=O)cc-6oc6cc(O)ccc56)c4C(=O)O)C(=O)O)cc3)nc2c(=O)[nH]1` (stereo not shown) [comparative compound A]: the “fluorescent signal of the cells” value is recorded as “burst of fluorescence but immediately the fluorescence was bleached”.
